We go through 10 molecules from patent US20240342292A1, “Compounds for the Degradation of EGFR Kinase” (BeiGene Switzerland GmbH, priority 2021, published 2024).

One assay concerns the target T1, L858R/T790M/C797S EGFR (Homo sapiens, UniProt P00533, C797S/L858R/T790M).
T1 construct: expressed in transfected cells; host or cells: H1975 clone #25 (lentiviral over-expression, endogenous EGFR knocked out by sgRNA)
As to the kind of experiment: EGFR degradation HTRF assay in H1975-clone #25 (LTC) cells. The class given is cell-based. The settings on record: 16h treatment; for DC50: H1975 # 25-LTC (L858R/T790M/C797S), HTRF; for Dmax: NCI-H1975, H1975 # 25-LTC (L858R/T790M/C797S), maximum percentage of degradation. In outline: (§1)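 Cells carrying only lentiviral mutant EGFR, since endogenous alleles were removed by CRISPR, received compounds on day 2 for 16 h. Final concentrations ran from 10 uM down in 5-fold steps over 8 doses. After lysis, EGFR levels were quantified by HTRF and DC50 derived by curve fitting.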
Background: Time-resolved FRET reads energy transfer from a long-lived donor to a nearby acceptor.

Another assay concerns Del19/T790M/C797S EGFR. As to the kind of experiment: EGFR degradation HTRF assay in H1975-clone #28 (DTC) cells. It counts as cell-based. The settings on record: H1975 # 28 DTC (Del19/T790M/C797S), 16h treatment; for DC50: HTRF; for Dmax (%): maximum percentage of degradation. In outline: as §1

T1 sequence (P00533 25-1210 T790M/C797S/L858R): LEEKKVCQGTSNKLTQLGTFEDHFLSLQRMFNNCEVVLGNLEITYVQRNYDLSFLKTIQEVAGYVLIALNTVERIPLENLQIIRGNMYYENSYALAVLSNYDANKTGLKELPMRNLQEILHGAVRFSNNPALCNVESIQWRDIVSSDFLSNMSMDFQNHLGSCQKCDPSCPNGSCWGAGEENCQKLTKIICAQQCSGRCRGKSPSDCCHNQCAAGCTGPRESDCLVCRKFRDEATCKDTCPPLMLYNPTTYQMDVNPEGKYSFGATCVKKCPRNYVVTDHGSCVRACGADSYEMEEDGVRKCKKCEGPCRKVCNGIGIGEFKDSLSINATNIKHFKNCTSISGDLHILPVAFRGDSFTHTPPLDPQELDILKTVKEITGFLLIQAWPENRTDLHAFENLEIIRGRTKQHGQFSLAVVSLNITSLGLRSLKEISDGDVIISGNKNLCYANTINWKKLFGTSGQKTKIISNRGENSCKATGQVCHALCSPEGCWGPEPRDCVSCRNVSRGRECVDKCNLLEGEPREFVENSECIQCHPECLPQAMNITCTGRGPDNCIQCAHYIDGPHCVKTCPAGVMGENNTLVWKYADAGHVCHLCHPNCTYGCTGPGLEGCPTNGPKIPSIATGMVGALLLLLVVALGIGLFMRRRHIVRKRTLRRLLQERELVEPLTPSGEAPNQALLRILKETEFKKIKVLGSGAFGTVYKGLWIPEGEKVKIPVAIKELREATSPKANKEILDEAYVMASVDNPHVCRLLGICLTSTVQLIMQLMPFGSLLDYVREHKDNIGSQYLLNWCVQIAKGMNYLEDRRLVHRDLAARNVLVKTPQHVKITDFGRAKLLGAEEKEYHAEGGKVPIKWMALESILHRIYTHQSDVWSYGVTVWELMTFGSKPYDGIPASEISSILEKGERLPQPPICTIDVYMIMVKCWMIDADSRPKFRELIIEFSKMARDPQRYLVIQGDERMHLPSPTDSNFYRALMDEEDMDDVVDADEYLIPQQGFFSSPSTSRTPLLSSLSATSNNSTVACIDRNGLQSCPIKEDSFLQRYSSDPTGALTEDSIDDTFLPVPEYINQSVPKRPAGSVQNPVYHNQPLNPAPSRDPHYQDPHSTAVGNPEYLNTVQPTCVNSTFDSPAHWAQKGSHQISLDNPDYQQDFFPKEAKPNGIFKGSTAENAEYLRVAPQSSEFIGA

One may read the DC50 as the concentration at which degradation of the target reaches its halfway point. A word on the Dmax: it is the largest share of the target that was removed. The low end stands for a partial loss of target, the high end for a fuller loss of target. As for `Cc1cc2cc(n1)-c1cnn(C)c1OCC[C@H]1C[C@@H]1CN1/C(=N/C2=O)Nc2ccc(N3CCN(C4CCN(c5ccc(C6CCC(=O)NC6=O)nc5)CC4)CC3)cc21` (stereo partly drawn) [Example 469, 3-(5-(4-(4-((7'S,7^2R,E)-1^1,2^6-dimethyl-3-oxo-5^2,5^3-dihydro-1^1H,5^1H-10-oxa-4-aza-5(2,1)-benzo[d]imidazola-2(2,4)-pyridina-1(4,5)-pyrazola-7(1,2)-cyclopropanacyclodecaphane-5^6-yl)piperazin-1-yl)piperidin-1-yl)pyridin-2-yl)piperidine-2,6-dione], on L858R/T790M/C797S EGFR, the DC50 was found to be 0.794 nM and the Dmax amounted to 82.7%. Besides, in the assay with Del19/T790M/C797S EGFR, the half-maximal degradation concentration (DC50) worked out at 0.594 nM and the “Dmax (%)” value came to 76.63%.
The corresponding values for `Cc1cc2cc(n1)-c1cnn(C)c1OCCC[C@@H](C)CN1/C(=N/C2=O)Nc2ccc(N3C[C@H](C)N(C4CCN(c5cc(F)c([C@H]6CCC(=O)NC6=O)c(F)c5)CC4)C[C@H]3C)cc21` [Example 380, (R)-3-(4-(4-((2S,5R)-2,5-dimethyl-4-((R,E)-1^1,2^6,7-trimethyl-3-oxo-5^2,5^1-dihydro-1^1H,5^1H-11-oxa-4-aza-5(2,1)-benzo[d]imidazola-2(2,4)-pyridina-1(4,5)-pyrazolacycloundecaphane-5^6-yl)piperazin-1-yl)piperidin-1-yl)-2,6-difluorophenyl)piperidine-2,6-dione] are 3.35 nM, 80.2%, 2.25 nM and 76.83%.
In the same order, the values of `Cc1cc2cc(n1)-c1cnn(C)c1OCCC[C@@H](C)CN1/C(=N/C2=O)Nc2ccc(N3CCN(C4CCN(c5cc(F)c([C@H]6CCC(=O)NC6=O)c(F)c5)CC4)[C@@H](CO)C3)cc21` [Example 421, (R)-3-(2,6-difluoro-4-(4-((R)-2-(hydroxymethyl)-4-((R,E)-1^1,2^6,7-trimethyl-3-oxo-5^2,5^3-dihydro-1^1H,5^1H-11-oxa-4-aza-5(2,1)-benzo[d]imidazola-2(2,4)-pyridina-1(4,5)-pyrazolacycloundecaphane-5^6-yl)piperazin-1-yl)piperidin-1-yl)phenyl)piperidine-2,6-dione] are 0.604 nM, 87.5%, 0.639 nM and 84.08%.
The corresponding values for `Cc1cc2cc(n1)-c1cnn(C)c1OCCC[C@@H](C)CN1/C(=N/C2=O)Nc2ccc(N3CCN(CCNc4cc(F)c([C@H]5CCC(=O)NC5=O)c(F)c4)CC3)cc21` (single isomer, unassigned) [Example 368] are 0.546 nM, 88%, 0.623 nM and 80.06%.
On L858R/T790M/C797S EGFR, `Cc1cc2cc(n1)-c1cnn(C)c1OCCC[C@@H](C)CN1/C(=N/C2=O)Nc2ccc(C(=O)N[C@@H]3CCN(CCc4cc(F)c([C@H]5CCC(=O)NC5=O)c(F)c4)[C@H](C)C3)cc21` [Example 269, (R,E)-N—((2R,4R)-1-(4-((R)-2,6-dioxopiperidin-3-yl)-3,5-difluorophenethyl)-2-methylpiperidin-4-yl)-1^1,2^6,7-trimethyl-3-oxo-5^2,5^3-dihydro-1^1H,5^1H-11-oxa-4-aza-5(2,1)-benzo[d]imidazola-2(2,4)-pyridina-1(4,5)-pyrazolacycloundecaphane-5^6-carboxamide] gave a half-maximal degradation concentration (DC50) of 0.316 nM and a Dmax of 92.7%. Further, in the assay on Del19/T790M/C797S EGFR, the DC50 came to 0.638 nM and the “Dmax (%)” value was found to be 82.6%.
At L858R/T790M/C797S EGFR, `Cc1cc2cc(n1)-c1cnn(C)c1OCCC[C@@H](C)CN1/C(=N/C2=O)Nc2ccc(C(=O)N(C)C[C@H]3CCN(CCc4cc(F)c([C@H]5CCC(=O)NC5=O)c(F)c4)CC3(F)F)cc21` [Example 274, (R,E)-N—(((R)-1-(4-((R)-2,6-dioxopiperidin-3-yl)-3,5-difluorophenethyl)-3,3-difluoropiperidin-4-yl)methyl)-N,1^1,2^6,7-tetramethyl-3-oxo-5^2,5^3-dihydro-1^1H,5^1H-11-oxa-4-aza-5(2,1)-benzo[d]imidazola-2(2,4)-pyridina-1(4,5)-pyrazolacycloundecaphane-5^6-carboxamide] displayed a DC50 of 1.63 nM and a maximal degradation (Dmax) of 69.2%. Moreover, in the assay on Del19/T790M/C797S EGFR, half-maximal degradation (DC50) was put at 0.691 nM and the “Dmax (%)” value is 48.56%.
The corresponding values for `Cc1cc2cc(n1)-c1cnn(C)c1OCCC[C@@H](C)CN1/C(=N/C2=O)Nc2ccc(N3CC[C@@H](N4CCN(c5cc(F)c([C@H]6CCC(=O)NC6=O)c(F)c5)CC4)CC3=O)cc21` [Example 448, (R)-3-(2,6-difluoro-4-(4-((R)-2-oxo-1-((R,E)-1^1,2^6,7-trimethyl-3-oxo-5^2,5^3-dihydro-1^1H,5^1H-11-oxa-4-aza-5(2,1)-benzo[d]imidazola-2(2,4)-pyridina-1(4,5)-pyrazolacycloundecaphane-5^6-yl)piperidin-4-yl)piperazin-1-yl)phenyl)piperidine-2,6-dione] are 0.237 nM, 92.3%, 0.584 nM and 88.36%.
The corresponding values for `Cc1cc2cc(n1)-c1cnn(C)c1OCCC[C@H](C)CN1/C(=N/C2=O)Nc2c(C)cc(CN3CCN(C(=O)C4CN(c5cc(F)c([C@H]6CCC(=O)NC6=O)c(F)c5)C4)CC3)cc21` [Example 154, (R)-3-(2,6-difluoro-4-(3-(4-(((S,E)-11,26,54,7-tetramethyl-3-oxo-5^2,5^1-dihydro-1^1H,5^1H-11-oxa-4-aza-5(2,1)-benzo[d]imidazola-2(2,4)-pyridina-1(4,5)-pyrazolacycloundecaphane-5^6-yl)methyl)piperazine-1-carbonyl)azetidin-1-yl)phenyl)piperidine-2,6-dione] are 0.998 nM, 79.4%, 0.994 nM and 78.94%.
In the same order, the values of `Cc1cc2cc(n1)-c1cnn(C)c1OCCC[C@@H](C)CN1/C(=N/C2=O)Nc2ccc(N3CCN(CC4CCN(c5cc(F)c([C@H]6CCC(=O)NC6=O)c(F)c5)CC4)CC3)cc21` [Example 322, (R)-3-(2,6-difluoro-4-(4-((4-((R,E)-1^1,2^6,7-trimethyl-3-oxo-5^2,5^3-dihydro-1^1H,5^1H-11-oxa-4-aza-5(2, 1)-benzo[d]imidazola-2(2,4)-pyridina-1(4,5)-pyrazolacycloundecaphane-5^6-yl)piperazin-1-yl)methyl)piperidin-1-yl)phenyl)piperidine-2,6-dione] are 1.21 nM, 86.8%, 0.934 nM and 74.99%.
For `Cc1cc2cc(n1)-c1cnn(C)c1OCCC[C@@H](C)CN1/C(=N/C2=O)Nc2ccc(CN3CCN(C(=O)[C@@H]4CCN(c5ccc(F)c6c5n(C)c(=O)n6C5CCC(=O)NC5=O)C4)CC3)cc21` (stereo partly drawn) [Example 211, 3-(7-fluoro-3-methyl-2-oxo-4-((R)-3-(4-(((R,E)-1^1,2^6,7-trimethyl-3-oxo-5^2,5^3-dihydro-1^1H,5^1H-11-oxa-4-aza-5(2,1)-benzo[d]imidazola-2(2,4)-pyridina-1(4,5)-pyrazolacycloundecaphane-5^6-yl)methyl)piperazine-1-carbonyl)pyrrolidin-1-yl)-2,3-dihydro-1H-benzo[d]imidazol-1-yl)piperidine-2,6-dione], at L858R/T790M/C797S EGFR, the DC50 came to 0.852 nM and the Dmax turned out to be 85.1%. In addition, in the assay with Del19/T790M/C797S EGFR, the half-maximal degradation concentration (DC50) came out at 0.901 nM and the “Dmax (%)” value amounted to 75.24%.
